According to patent US8952024B2, “Herbicidal pyrimidone derivatives” (E I du Pont de Nemours and Company, priority 2009, dated 2015):

The molecules below were run on soybean (Glycine max) (assay: Test B pre-/postemergence plant response). Conditions: Postemergence, 31 g ai/ha; 0 to 100 scale (0 no effect, 100 complete control).
Format: in vivo
Method in brief: (§1)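 Plants treated either at seeding (loam/sand soil) or postemergence at 2 to 18 cm height, using a surfactant-containing non-phytotoxic solvent formulation. Evaluation was visual after 13 to 15 days, 0 to 100 scale relative to controls.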

| Compound | Plant response rating, Soybean |
| --- | --- |
| COCCn1c(-c2ccsc2)ncc(C(=O)C2=C(O)C3CCC(C3)C2=O)c1=O (centres unmarked) [Compound 228] | 95 |

Same assay, conditions: Postemergence, 62 g ai/ha; scale 0 to 100 (0 no effect, 100 complete control)

| Compound | Plant response rating, Soybean |
| --- | --- |
| COCCn1c(-c2ccsc2)ncc(C(=O)C2=C(O)C3CCC(C3)C2=O)c1=O (centres unmarked) [Compound 228] | 98 |

Same assay, conditions: Postemergence, 250 g ai/ha; scale 0 to 100 (0 no effect, 100 complete control); 13 to 15 days

| Compound | Plant response rating, Soybean |
| --- | --- |
| COCCn1c(-c2ccsc2)ncc(C(=O)C2=C(O)C3CCC(C3)C2=O)c1=O (centres unmarked) [Compound 228] | 100 |

Each molecule was assayed on wild oat (Avena fatua) (assay: Test B pre-/postemergence plant response). Conditions: Postemergence, 31 g ai/ha; 0 to 100 scale (0 no effect, 100 complete control).
Format: in vivo
Method in brief: as §1

| Compound | Plant response rating, Oat, Wild |
| --- | --- |
| COCCn1c(-c2ccsc2)ncc(C(=O)C2=C(O)C3CCC(C3)C2=O)c1=O (centres unmarked) [Compound 228] | 0 |

Same assay, conditions: Postemergence, 62 g ai/ha; scale 0 to 100 (0 no effect, 100 complete control)

| Compound | Plant response rating, Oat, Wild |
| --- | --- |
| COCCn1c(-c2ccsc2)ncc(C(=O)C2=C(O)C3CCC(C3)C2=O)c1=O (centres unmarked) [Compound 228] | 5 |

Same assay, conditions: Postemergence, 250 g ai/ha; scale 0 to 100 (0 no effect, 100 complete control); 13 to 15 days

| Compound | Plant response rating, Oat, Wild |
| --- | --- |
| COCCn1c(-c2ccsc2)ncc(C(=O)C2=C(O)C3CCC(C3)C2=O)c1=O (centres unmarked) [Compound 228] | 40 |

These molecules were tested on wheat (Triticum aestivum) (assay: Test B pre-/postemergence plant response). Conditions: Postemergence, 31 g ai/ha; 0 to 100 scale (0 no effect, 100 complete control).
Format: in vivo
Method in brief: as §1

| Compound | Plant response rating, Wheat |
| --- | --- |
| COCCn1c(-c2ccsc2)ncc(C(=O)C2=C(O)C3CCC(C3)C2=O)c1=O (centres unmarked) [Compound 228] | 0 |

Same assay, conditions: Postemergence, 62 g ai/ha; scale 0 to 100 (0 no effect, 100 complete control)

| Compound | Plant response rating, Wheat |
| --- | --- |
| COCCn1c(-c2ccsc2)ncc(C(=O)C2=C(O)C3CCC(C3)C2=O)c1=O (centres unmarked) [Compound 228] | 5 |

Same assay, conditions: Postemergence, 250 g ai/ha; scale 0 to 100 (0 no effect, 100 complete control); 13 to 15 days

| Compound | Plant response rating, Wheat |
| --- | --- |
| COCCn1c(-c2ccsc2)ncc(C(=O)C2=C(O)C3CCC(C3)C2=O)c1=O (centres unmarked) [Compound 228] | 35 |

What follows are molecules tested on ragweed (common ragweed, Ambrosia elatior) (assay: Test B pre-/postemergence plant response). Conditions: Postemergence, 31 g ai/ha; 0 to 100 scale (0 no effect, 100 complete control).
Format: in vivo
Method in brief: as §1

| Compound | Plant response rating, Ragweed |
| --- | --- |
| COCCn1c(-c2ccsc2)ncc(C(=O)C2=C(O)C3CCC(C3)C2=O)c1=O (centres unmarked) [Compound 228] | 70 |

Same assay, conditions: Postemergence, 62 g ai/ha; scale 0 to 100 (0 no effect, 100 complete control)

| Compound | Plant response rating, Ragweed |
| --- | --- |
| COCCn1c(-c2ccsc2)ncc(C(=O)C2=C(O)C3CCC(C3)C2=O)c1=O (centres unmarked) [Compound 228] | 80 |

Same assay, conditions: Postemergence, 250 g ai/ha; scale 0 to 100 (0 no effect, 100 complete control); 13 to 15 days

| Compound | Plant response rating, Ragweed |
| --- | --- |
| COCCn1c(-c2ccsc2)ncc(C(=O)C2=C(O)C3CCC(C3)C2=O)c1=O (centres unmarked) [Compound 228] | 98 |

Each molecule was assayed on kochia (Kochia scoparia) (assay: Test B pre-/postemergence plant response). Conditions: Postemergence, 31 g ai/ha; 0 to 100 scale (0 no effect, 100 complete control).
Format: in vivo
Method in brief: as §1

| Compound | Plant response rating, Kochia |
| --- | --- |
| COCCn1c(-c2ccsc2)ncc(C(=O)C2=C(O)C3CCC(C3)C2=O)c1=O (centres unmarked) [Compound 228] | 90 |

Same assay, conditions: Postemergence, 62 g ai/ha; scale 0 to 100 (0 no effect, 100 complete control)

| Compound | Plant response rating, Kochia |
| --- | --- |
| COCCn1c(-c2ccsc2)ncc(C(=O)C2=C(O)C3CCC(C3)C2=O)c1=O (centres unmarked) [Compound 228] | 100 |

Same assay, conditions: Postemergence, 125 g ai/ha; scale 0 to 100 (0 no effect, 100 complete control)

| Compound | Plant response rating, Kochia |
| --- | --- |
| COCCn1c(-c2ccsc2)ncc(C(=O)C2=C(O)C3CCC(C3)C2=O)c1=O (centres unmarked) [Compound 228] | 100 |

Same assay, conditions: Postemergence, 250 g ai/ha; scale 0 to 100 (0 no effect, 100 complete control); 13 to 15 days

| Compound | Plant response rating, Kochia |
| --- | --- |
| COCCn1c(-c2ccsc2)ncc(C(=O)C2=C(O)C3CCC(C3)C2=O)c1=O (centres unmarked) [Compound 228] | 100 |

What follows are molecules tested on goosegrass (Eleusine indica) (assay: Test B pre-/postemergence plant response). Conditions: Postemergence, 31 g ai/ha; 0 to 100 scale (0 no effect, 100 complete control).
Format: in vivo
Method in brief: as §1

| Compound | Plant response rating, Goosegrass |
| --- | --- |
| COCCn1c(-c2ccsc2)ncc(C(=O)C2=C(O)C3CCC(C3)C2=O)c1=O (centres unmarked) [Compound 228] | 80 |

Same assay, conditions: Postemergence, 62 g ai/ha; scale 0 to 100 (0 no effect, 100 complete control)

| Compound | Plant response rating, Goosegrass |
| --- | --- |
| COCCn1c(-c2ccsc2)ncc(C(=O)C2=C(O)C3CCC(C3)C2=O)c1=O (centres unmarked) [Compound 228] | 80 |

Same assay, conditions: Postemergence, 125 g ai/ha; scale 0 to 100 (0 no effect, 100 complete control)

| Compound | Plant response rating, Goosegrass |
| --- | --- |
| COCCn1c(-c2ccsc2)ncc(C(=O)C2=C(O)C3CCC(C3)C2=O)c1=O (centres unmarked) [Compound 228] | 85 |

Same assay, conditions: Postemergence, 250 g ai/ha; scale 0 to 100 (0 no effect, 100 complete control); 13 to 15 days

| Compound | Plant response rating, Goosegrass |
| --- | --- |
| COCCn1c(-c2ccsc2)ncc(C(=O)C2=C(O)C3CCC(C3)C2=O)c1=O (centres unmarked) [Compound 228] | 90 |

The molecules below were run on pigweed (Amaranthus retroflexus) (assay: Test B pre-/postemergence plant response). Conditions: Postemergence, 31 g ai/ha; 0 to 100 scale (0 no effect, 100 complete control).
Format: in vivo
Method in brief: as §1

| Compound | Plant response rating, Pigweed |
| --- | --- |
| COCCn1c(-c2ccsc2)ncc(C(=O)C2=C(O)C3CCC(C3)C2=O)c1=O (centres unmarked) [Compound 228] | 98 |

Same assay, conditions: Postemergence, 62 g ai/ha; scale 0 to 100 (0 no effect, 100 complete control)

| Compound | Plant response rating, Pigweed |
| --- | --- |
| COCCn1c(-c2ccsc2)ncc(C(=O)C2=C(O)C3CCC(C3)C2=O)c1=O (centres unmarked) [Compound 228] | 100 |

Same assay, conditions: Postemergence, 250 g ai/ha; scale 0 to 100 (0 no effect, 100 complete control); 13 to 15 days

| Compound | Plant response rating, Pigweed |
| --- | --- |
| COCCn1c(-c2ccsc2)ncc(C(=O)C2=C(O)C3CCC(C3)C2=O)c1=O (centres unmarked) [Compound 228] | 100 |
